In paper PMC6707612, “Cyclic-di-GMP binds to histidine kinase RavS to control RavS-RavR phosphotransfer and regulates the bacterial lifestyle transition between virulence and swimming” (PLoS Pathogens, 2019):
Entries after “also recorded” stand apart in the source; their conditions may differ.

How the values were obtained:
RavS^ΔTrM = biological target: T1, RavS^ΔTrM (Xanthomonas campestris pv. campestris, UniProt Q8P9A6); assay: microscale thermophoresis (MST) binding; settings: 20 nM fluorescein-labelled nucleotide
T1 sequence (Q8P9A6 47-697): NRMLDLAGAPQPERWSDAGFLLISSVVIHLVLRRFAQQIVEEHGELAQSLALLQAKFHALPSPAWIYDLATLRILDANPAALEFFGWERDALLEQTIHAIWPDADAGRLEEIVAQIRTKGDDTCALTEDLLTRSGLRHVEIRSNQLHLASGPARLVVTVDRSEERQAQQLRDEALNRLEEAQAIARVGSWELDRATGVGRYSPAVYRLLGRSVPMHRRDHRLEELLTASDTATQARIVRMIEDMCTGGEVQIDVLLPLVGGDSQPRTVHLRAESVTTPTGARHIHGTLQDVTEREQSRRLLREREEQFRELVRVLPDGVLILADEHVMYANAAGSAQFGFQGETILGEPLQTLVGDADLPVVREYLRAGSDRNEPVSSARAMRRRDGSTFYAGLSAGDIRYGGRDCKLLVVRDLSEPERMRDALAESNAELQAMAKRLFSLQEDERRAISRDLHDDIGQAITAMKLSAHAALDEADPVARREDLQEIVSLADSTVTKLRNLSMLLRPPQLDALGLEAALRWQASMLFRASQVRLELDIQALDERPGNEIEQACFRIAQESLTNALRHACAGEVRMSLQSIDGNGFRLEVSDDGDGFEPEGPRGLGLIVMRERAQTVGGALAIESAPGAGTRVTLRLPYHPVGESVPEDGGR
Protocol: (a) c-di-GMP enhances RavS-RavR phosphotransfer in vitro. A total of 5 μM RavS^ΔN was autophosphorylated for 15 min by the addition of 10 μCi [γ-^32P]ATP. A total of 15 μM RavR^ΔEAL or RavR^ΔEAL(D496A) was added and incubated for 30 min at 25°C. A total of 100 μM c-di-GMP was added if necessary. The reactions were terminated with 5× SDS loading buffer before autoradiography. The experiment was repeated three times. (b) Time course analyses of the impact of c-di-GMP on the velocity of RavS-RavR phosphotransfer. The autophosphorylation and phosphotransfer reactions were set as mentioned in (a). Various concentrations of c-di-GMP were added to the reactions and isotopic signals (band intensities) of RavS~P were measured after autoradiography. (c–d) c-di-GMP triggered an increase in RavS-RavR phosphotransfer in a dose-dependent manner. (c) Various concentrations of c-di-GMP (0, 5, 10, 15, 30, 50, 75 and 100 μM) were added to the RavS-RavR phosphotransfer reactions. (d) The phosphorylated level of RavS^ΔN~P was quantified by ImageJ and the EC50 value was estimated by Origin 8.5 software. In (b) and (d), the intensity of each data point is the average from three experimental repeats. (e) c-di-GMP triggered increase in RavS-RavR phosphotransfer is highly specific. […] The interaction between RavS^ΔTrM and various nucleotides, including fl-c-di-GMP, fl-cGMP and fl-c-di-AMP, were measured by microscale thermophoresis (MST). A total of 20 nM fluorescein-labelled nucleotides and increasing concentrations of proteins were incubated and measured by MST. The dissociation constant (Kd) was quantified to estimate the binding affinity. […]
The interaction between c-di-GMP nucleotides and various proteins was measured by using MST with a fluorescein-labelled c-di-GMP (2′-Fluo-AHC-c-di-GMP, abbreviated as fl-c-di-GMP; 2′-Fluo-AHC-c-di-AMP, fl-c-di-AMP; 2′-Fluo-AHC-cGMP, fl-cGMP; Biolog, Germany). These chemicals contain carboxyfluorescein that has excitation and emission wavelengths of 497 nm and 520 nm, respectively, which can be detected directly by a MST instrument. […]

RavS^ΔN = biological target: T2, RavS^ΔN (Xanthomonas campestris pv. campestris, UniProt Q8P9A6); assay: in vitro RavS-RavR phosphotransfer assay (RavS~P level by autoradiography); type: biochemical; settings: specificity control nucleotides
T2 sequence (Q8P9A6 352-697): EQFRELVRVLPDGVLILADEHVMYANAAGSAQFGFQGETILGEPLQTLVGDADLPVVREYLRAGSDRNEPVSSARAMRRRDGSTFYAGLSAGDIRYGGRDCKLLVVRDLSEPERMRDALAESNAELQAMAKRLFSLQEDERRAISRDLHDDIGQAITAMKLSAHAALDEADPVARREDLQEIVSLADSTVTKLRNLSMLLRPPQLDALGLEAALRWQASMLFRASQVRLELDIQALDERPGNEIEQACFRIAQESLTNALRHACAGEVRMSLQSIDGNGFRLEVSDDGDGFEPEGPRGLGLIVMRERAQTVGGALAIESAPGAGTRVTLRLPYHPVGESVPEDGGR
Protocol: (a) c-di-GMP enhances RavS-RavR phosphotransfer in vitro. A total of 5 μM RavS^ΔN was autophosphorylated for 15 min by the addition of 10 μCi [γ-^32P]ATP. A total of 15 μM RavR^ΔEAL or RavR^ΔEAL(D496A) was added and incubated for 30 min at 25°C. A total of 100 μM c-di-GMP was added if necessary. The reactions were terminated with 5× SDS loading buffer before autoradiography. The experiment was repeated three times. (b) Time course analyses of the impact of c-di-GMP on the velocity of RavS-RavR phosphotransfer. The autophosphorylation and phosphotransfer reactions were set as mentioned in (a). Various concentrations of c-di-GMP were added to the reactions and isotopic signals (band intensities) of RavS~P were measured after autoradiography. (c–d) c-di-GMP triggered an increase in RavS-RavR phosphotransfer in a dose-dependent manner. (c) Various concentrations of c-di-GMP (0, 5, 10, 15, 30, 50, 75 and 100 μM) were added to the RavS-RavR phosphotransfer reactions. (d) The phosphorylated level of RavS^ΔN~P was quantified by ImageJ and the EC50 value was estimated by Origin 8.5 software. In (b) and (d), the intensity of each data point is the average from three experimental repeats. (e) c-di-GMP triggered increase in RavS-RavR phosphotransfer is highly specific. […] (f) RavS specifically interacts with fl-c-di-GMP. The interaction between RavS^ΔTrM and various nucleotides, including fl-c-di-GMP, fl-cGMP and fl-c-di-AMP, were measured by microscale thermophoresis (MST). A total of 20 nM fluorescein-labelled nucleotides and increasing concentrations of proteins were incubated and measured by MST. The dissociation constant (Kd) was quantified to estimate the binding affinity. Each experiment was repeated three times.
An in vitro autophosphorylation assay was conducted as described in our previous study. Purified protein was incubated with 10 μM ATP containing 10 μCi [γ-^32P]ATP (PerkinElmer, USA) in the reaction buffer (50 mM Tris-HCl, pH 7.8, 25 mM NaCl, 25 mM KCl, 5 mM MgCl2, 2 mM DTT) for the indicated time at 28°C. If necessary, c-di-GMP was added to the mixture at the same time as ATP. For the phosphoryl transfer assay, purified RR protein or its derivative was added into the reaction mixture containing the phosphorylated HK. The autophosphorylation or phosphoryl transfer reaction was terminated by adding 5× SDS-PAGE loading buffer. Phosphorylated proteins were separated by 12% SDS-PAGE. After electrophoresis, gels were exposed to a phosphor screen (GE Healthcare) and the autoradiographic signals were detected by a Typhoon FLA7000 (GE Healthcare).

[1] = biological target: EAL domain of RavR (Xanthomonas campestris pv. campestris); assay: SEC + AUC; purified EAL protein, 15 uM, incubated with 300 uM c-di-GMP in phosphodiesterase reaction buffer (50 mM Tris-HCl pH 7.5, 250 mM NaCl, 25 mM KCl, 10 mM MgCl2, 2 mM DTT) at 4 C for 30 min; Superdex 75 10/300 GL to separate dimer and monomer; molecular weight of each fraction determined by analytical ultracentrifugation

| Compound | impact on RavS phosphotransferase activity / velocity of RavS-RavR phosphotransfer (RavS^ΔN) | other results |
| --- | --- | --- |
| 2′-Fluo-AHC-c-di-AMP [fl-c-di-AMP] | – | dissociation constant (Kd) (RavS^ΔTrM): no binding; also recorded: completely failed to bind |
| 2′-Fluo-AHC-cGMP [fl-cGMP] | – | Kd (RavS^ΔTrM; read-out: dissociation constant (Kd)): 64.4 ± 9.43 µM |
| Nc1nc2c(ncn2[C@@H]2O[C@H](COP(=O)(O)O)[C@@H](O)[C@H]2O)c(=O)[nH]1 [GMP] | did not affect; also recorded: did not have any impact | – |
| Nc1nc2c(ncn2[C@@H]2O[C@H](COP(=O)(O)OP(=O)(O)OP(=O)(O)O)[C@@H](O)[C@H]2O)c(=O)[nH]1 [GTP] | did not affect; also recorded: did not have any impact | – |
| Nc1ncnc2c1ncn2[C@@H]1O[C@@H]2COP(=O)(O)O[C@H]3[C@@H](O)[C@H](n4cnc5c(N)ncnc54)O[C@@H]3COP(=O)(O)O[C@H]2[C@H]1O [c-di-AMP] | did not affect; also recorded: did not have any impact | – |
| Nc1nc2c(ncn2[C@@H]2O[C@@H]3COP(=O)(O)O[C@H]3[C@H]2O)c(=O)[nH]1 [cGMP] | did not affect; also recorded: did not have any impact | – |
| EAL domain of RavR (domain or fragment) | – | stoichiometry N [1]: 2 |
